The subject of the test is P388 lymphocytic leukemia (PS System) cell line. In words: P388 lymphocytic leukemia in vitro cell line growth inhibition (PS bioassay). In kind it is cell-based, murine. The method, then:
Because of the dolastatin's potency, the sea hare seems to require only vanishingly small quantities (about 1 mg each from 100 kg), making isolation and structural elucidation of these peptides exceptionally challenging. Later another substance was isolated and determined to be a unique linear pentapeptide and was denominated "dolastatin 10".

In brackets after ≈: the same amount, converted by molar mass. Like-named read-outs stand apart in the source and are kept apart here.

Molecule `C/C=C1/NC(=O)C(NC(=O)C(NC(=O)C(CO)OC)C(C)C)C(C)OC(=O)C(C(C)C)NC(=O)C(Cc2ccccc2)N(C)C(=O)C(Cc2ccccc2)N2C(=O)C(CCC2O)NC1=O` (centres unmarked) [dolastatin 13] registered an ED50 of 1.3 ng/mL (≈ 1.43 nM). Moreover, the ED50 (listed as Dolastatin 13) is 13 ng/mL (≈ 14.3 nM).
